Source: article PMC4641453 (Science translational medicine, 2015)
≈ marks a conversion by molar mass, not a printed value. Where two headings read alike, the source gives them in different places.

Assays:
[1] = tested on: S. pneumoniae isolates; assay type: cell-based; details: Streptococcus pneumoniae
[2] = assay type: physicochemical; details: pH 7
[3] = tested on: Moraxella catarrhalis (ATCC 25238); experiment: microbe, parasite or virus in culture; assay type: cell-based; details: ATCC25238, read-out: MIC Moraxella catarrhalis
[4] = tested on: MRSA, Staphylococcus aureus (NRS70); experiment: microbe, parasite or virus in culture; assay type: cell-based; details: MRSA|NRS70, read-out: MIC MRSA
[5] = tested on: Enterococcus faecalis (ATCC 33186); experiment: microbe, parasite or virus in culture; assay type: cell-based; details: ATCC33186, read-out: MIC Ef
[6] = rat, in vivo, 10 mg/kg; cited from earlier work
[7] = tested on: Legionella pneumophila (ATCC 33153); experiment: microbe, parasite or virus in culture; assay type: cell-based
[8] = tested on: Neisseria meningitidis (ATCC 13077); experiment: microbe, parasite or virus in culture; assay type: cell-based; details: ATCC13077, read-out: Zone of inhibition Nm
[9] = tested on: Streptococcus pneumoniae (R6); experiment: microbe, parasite or virus in culture; assay type: cell-based; details: read-out: MIC Spn
[10] = tested on: Streptococcus pneumoniae mutants resistant to compound 1; experiment: In vitro generation and MIC testing of compound 1 resistant mutants; assay type: cell-based; details: fifteen compound 1 resistant S. pneumoniae clones (RpsE G27R)
[11] = tested on: Chlamydia trachomatis serovar L2 (strain 434/Bu); experiment: Chlamydial susceptibility testing in infected HeLa 229 monolayers; details: up to 100 μg/mL, C. trachomatis-infected monolayers
[12] = tested on: Haemophilus influenzae (ATCC 49247); experiment: microbe, parasite or virus in culture; assay type: cell-based; details: ATCC49247, read-out: Zone of inhibition Hi
[13] = tested on: MSSA, Staphylococcus aureus (ATCC 29213); experiment: microbe, parasite or virus in culture; assay type: cell-based; details: ATCC29213|MSSA, read-out: MIC MSSA
[14] = tested on: Bacillus subtilis (ATCC 23857); experiment: microbe, parasite or virus in culture; assay type: cell-based; details: ATCC23857, read-out: MIC Bs
[15] = tested on: Listeria monocytogenes (NS512); experiment: microbe, parasite or virus in culture; assay type: cell-based
[16] = tested on: S. pneumoniae strain D39x; experiment: Mouse intranasal pneumococcal challenge, pneumonia and bacteremia; assay type: in vivo, mice
[17] = tested on: Neisseria gonorrhoeae (ATCC 49226); assay type: cell-based; details: 40 μg of compound on 6 mm disc; range of two experiments
[18] = tested on: Streptococcus pyogenes (ATCC 700294); experiment: microbe, parasite or virus in culture; assay type: cell-based; details: ATCC700294, read-out: MIC Spy
[19] = tested on: S. pneumoniae strain TIGR4; experiment: Mouse intranasal pneumococcal challenge, bacteremia and meningitis; assay type: in vivo, mice; details: 5 mg/kg from 18 hours after intranasal challenge
[20] = mean (% CV); cited from earlier work
[21] = ATCC700904, read-out: MIC ATCC700904

SMILES: CO/N=C(\C(=O)N[C@@H]1C(=O)N2C(C(=O)O)=C(COC(C)=O)CS[C@H]12)c1csc(N)n1 [Cefotaxime]
- MIC [1, 21]: 0.2 µg/mL (≈ 0.439 µM)
- MIC ([1]; read-out: MIC 8249): 3 µg/mL (≈ 6.59 µM)
- MIC ([1]; read-out: MIC Daw19): 1 µg/mL (≈ 2.2 µM)
- MIC ([1]; read-out: MIC Daw26): 3 µg/mL (≈ 6.59 µM)
- MIC ([1]; read-out: MIC Daw47): 3 µg/mL (≈ 6.59 µM)

SMILES: CC[C@H]1OC(=O)[C@H](C)[C@@H](O[C@H]2C[C@@](C)(OC)[C@@H](O)[C@H](C)O2)[C@H](C)[C@@H](O[C@@H]2O[C@H](C)C[C@H](N(C)C)[C@H]2O)[C@](C)(O)C[C@@H](C)C(=O)[C@H](C)[C@@H](O)[C@]1(C)O [Erythromycin]
- MIC [1, 21]: 2 µg/mL (≈ 2.73 µM)
- MIC ([1]; read-out: MIC 8249): > 2 µg/mL
- MIC ([1]; read-out: MIC BAA-1407): 50 µg/mL (≈ 68.1 µM)
- MIC ([1]; read-out: MIC Daw7): ≤ 0.2 µg/mL
- MIC ([1]; read-out: MIC Daw8): ≤ 0.2 µg/mL
- MIC ([1]; read-out: MIC Daw9): 2 µg/mL (≈ 2.73 µM)
- MIC ([1]; read-out: MIC Daw19): 1 µg/mL (≈ 1.36 µM)
- MIC ([1]; read-out: MIC Daw26): 0.1 µg/mL (≈ 0.136 µM)
- MIC ([1]; read-out: MIC Daw27): 1 µg/mL (≈ 1.36 µM)
- MIC ([1]; read-out: MIC Daw47): 0.03 µg/mL (≈ 0.0409 µM)
- MIC ([1]; read-out: MIC Daw62): ≤ 0.2 µg/mL
- MIC ([1]; read-out: MIC Daw64): ≤ 0.2 µg/mL
- MIC ([1]; read-out: MIC OVA2): 1 µg/mL (≈ 1.36 µM)
- MIC ([1]; read-out: MIC R6): ≤ 0.2 µg/mL

SMILES: CC1(C)S[C@@H]2[C@H](NC(=O)Cc3ccccc3)C(=O)N2[C@H]1C(=O)O [Penicillin G]
- MIC [1, 21]: > 2 µg/mL
- MIC ([1]; read-out: MIC 8249): > 2 µg/mL
- MIC ([1]; read-out: MIC A66.1x): ≤ 0.2 µg/mL
- MIC ([1]; read-out: MIC BAA-1407): 2 µg/mL (≈ 5.98 µM)
- MIC ([1]; read-out: MIC BHN97x): ≤ 0.2 µg/mL
- MIC ([1]; read-out: MIC D39X): ≤ 0.2 µg/mL
- MIC ([1]; read-out: MIC Daw7): 3 µg/mL (≈ 8.97 µM)
- MIC ([1]; read-out: MIC Daw8): 3 µg/mL (≈ 8.97 µM)
- MIC ([1]; read-out: MIC Daw9): 2 µg/mL (≈ 5.98 µM)
- MIC ([1]; read-out: MIC Daw19): 3 µg/mL (≈ 8.97 µM)
- MIC ([1]; read-out: MIC Daw26): 3 µg/mL (≈ 8.97 µM)
- MIC ([1]; read-out: MIC Daw27): 3 µg/mL (≈ 8.97 µM)
- MIC ([1]; read-out: MIC Daw47): 3 µg/mL (≈ 8.97 µM)
- MIC ([1]; read-out: MIC Daw62): 3 µg/mL (≈ 8.97 µM)
- MIC ([1]; read-out: MIC Daw64): 2 µg/mL (≈ 5.98 µM)
- MIC ([1]; read-out: MIC OVA2): ≤ 0.2 µg/mL
- MIC ([1]; read-out: MIC R6): ≤ 0.2 µg/mL
- MIC ([1]; read-out: MIC T4X): ≤ 0.2 µg/mL

SMILES: CN[C@@H]1[C@H](O)[C@H](NC)[C@H]2O[C@@]3(O)C(=O)C[C@@H](C)O[C@H]3O[C@@H]2[C@H]1O [Spectinomycin, spectinomycin]
- Chemical stability (percent of parent over time) [2]: continuously declined over time
- MIC [3]: 6 µg/mL (≈ 18.1 µM)
- MIC [4]: > 200 µg/mL
- MIC [5]: 100 µg/mL (≈ 301 µM)
- IV Pharmacokinetics CL [6]: 0.60 (11.5) L/hr/Kg
- IV Pharmacokinetics T1/2 [6]: 0.75 (49.3) hr
- IV Pharmacokinetics Vd [6]: 0.76 (45.2) L/Kg
- IV Pharmacokinetics fe (fraction excreted unchanged in urine) [6]: 0.55 (27.0)
- Zone of inhibition Lp ([7]; 40 μg of compound on 6 mm disc, 48 hours, range of two experiments): completely inactive
- zone of inhibition at 40 µg/disc ([7]; Legionella pneumophila, ATCC33153, 48 h, read-out: Zone of inhibition Lp): 0 mm
- MIC [1, 21]: 25 µg/mL (≈ 75.2 µM)
- MIC ([1]; read-out: MIC 8249): 25 µg/mL (≈ 75.2 µM)
- MIC ([1]; read-out: MIC A66.1x): 6 µg/mL (≈ 18.1 µM)
- MIC ([1]; read-out: MIC BAA-1407): 13 µg/mL (≈ 39.1 µM)
- MIC ([1]; read-out: MIC BHN97x): 6 µg/mL (≈ 18.1 µM)
- MIC ([1]; read-out: MIC D39X): 13 µg/mL (≈ 39.1 µM)
- MIC ([1]; read-out: MIC Daw7): 25 µg/mL (≈ 75.2 µM)
- MIC ([1]; read-out: MIC Daw8): 25 µg/mL (≈ 75.2 µM)
- MIC ([1]; read-out: MIC Daw9): 13 µg/mL (≈ 39.1 µM)
- MIC ([1]; read-out: MIC Daw19): 25 µg/mL (≈ 75.2 µM)
- MIC ([1]; read-out: MIC Daw26): 50 µg/mL (≈ 150 µM)
- MIC ([1]; read-out: MIC Daw27): 25 µg/mL (≈ 75.2 µM)
- MIC ([1]; read-out: MIC Daw47): 25 µg/mL (≈ 75.2 µM)
- MIC ([1]; read-out: MIC Daw62): 25 µg/mL (≈ 75.2 µM)
- MIC ([1]; read-out: MIC Daw64): 25 µg/mL (≈ 75.2 µM)
- MIC ([1]; read-out: MIC OVA2): 13 µg/mL (≈ 39.1 µM)
- MIC ([1]; read-out: MIC R6): 13 µg/mL (≈ 39.1 µM)
- MIC ([1]; read-out: MIC T4X): 13 µg/mL (≈ 39.1 µM)
- zone of inhibition at 40 µg/disc [8]: 13 to 15 mm
- MIC [9]: 12.5 µg/mL (≈ 37.6 µM)
- MIC against resistant clones [10]: weakly susceptible
- Reduction of intracellular inclusions [11]: failed to reduce intracellular inclusions
- zone of inhibition at 40 µg/disc [12]: 12 mm
- MIC [13]: 100 µg/mL (≈ 301 µM)
- MIC [14]: 12.5 µg/mL (≈ 37.6 µM)
- MIC ([15]; Listeria monocytogenes, read-out: MIC Lm): 50 µg/mL (≈ 150 µM)
- MIC Lm ([15]; NS512, range of two independent experiments): 50 µg/mL (≈ 150 µM)
- Survival of infected mice ([16]; 5 mg/kg BID subcutaneous from 18 hours post challenge, D39x, n=5): died or were humanely euthanized by 120 hours post challenge
- Bioluminescent imaging of infection ([16]; 72 hours post challenge, 5 mg/kg BID): systemic bacterial infection
- Zone of inhibition Ng [17]: 10–11.5 mm
- MIC [18]: 25 µg/mL (≈ 75.2 µM)
- Survival of infected mice [19]: did not survive beyond 96 hours
- Microsomal Stability t1/2 [20]: 6.43 (0.13) hr

SMILES: [H]/N=C(/N)N[C@H]1[C@H](O)[C@@H](O)[C@H](O[C@@H]2O[C@@H](C)[C@](O)(C=O)[C@H]2O[C@@H]2O[C@@H](CO)[C@H](O)[C@@H](O)[C@@H]2NC)[C@@H](N/C(N)=N\[H])[C@@H]1O [Streptomycin]
- MIC [1, 21]: > 200 µg/mL
- MIC ([1]; read-out: MIC 8249): > 200 µg/mL
- MIC ([1]; read-out: MIC A66.1x): 13 µg/mL (≈ 22.4 µM)
- MIC ([1]; read-out: MIC BAA-1407): 50 µg/mL (≈ 86 µM)
- MIC ([1]; read-out: MIC BHN97x): 13 µg/mL (≈ 22.4 µM)
- MIC ([1]; read-out: MIC D39X): 13 µg/mL (≈ 22.4 µM)
- MIC ([1]; read-out: MIC Daw7): 25 µg/mL (≈ 43 µM)
- MIC ([1]; read-out: MIC Daw8): 25 µg/mL (≈ 43 µM)
- MIC ([1]; read-out: MIC Daw9): > 200 µg/mL
- MIC ([1]; read-out: MIC Daw62): 25 µg/mL (≈ 43 µM)
- MIC ([1]; read-out: MIC Daw64): 25 µg/mL (≈ 43 µM)
- MIC ([1]; read-out: MIC OVA2): 13 µg/mL (≈ 22.4 µM)
- MIC ([1]; read-out: MIC R6): 13 µg/mL (≈ 22.4 µM)
- MIC ([1]; read-out: MIC T4X): 6 µg/mL (≈ 10.3 µM)

SMILES: CC1(C)S[C@@H]2[C@H](NC(=O)[C@H](N)c3ccccc3)C(=O)N2[C@H]1C(=O)O [ampicillin]
- Survival of infected mice, 9 day experiment ([16]; matched doses 2.5 or 5 mg/kg): all survived
- Reduction of bacterial titers ([16]; within 48 hours post infection, 2.5 or 5 mg/kg): more than 3 logs
